Patent publication US5998362A, “Conjugates useful in the treatment of prostate cancer” (priority 1997, dated 1999)
Where a SMILES comes first, the peptide text is derived from it. [ ]: non-standard residue; d: D form. The star is where a group is joined. X5 = COCCOCCOCCOCCOCCOCCOCCOCCOCCOCCOCCOCCOCCOCCOCCOCC(=O)*; X6 = COCCOCCOCCOCCOCCOCCOCCOCCOCCOCCOCCOCCOCCOCCOCC(=O)*; Decanoyl(3,6,9-trioxa) = COCCOCCOCC(=O)*; Glyceroyl(2S) = O=C([C@@H](O)CO)*; Glyceroyl(2R) = O=C([C@H](O)CO)*; hArg = N=C(N)NCCCC[C@H](N)C(=O)O; 3Pal = N[C@@H](Cc1cccnc1)C(=O)O; MeOCH2CH2OCH2CO = COCCOCC(=O)*; X4 = O=C([C@H](O)[C@@H](O)CO)*; Chg = N[C@H](C(=O)O)C1CCCCC1; hSer = N[C@@H](CCO)C(=O)O; Nle = CCCC[C@H](N)C(=O)O; Glycolyl = O=C(CO)*; X3 = O=C(C(O)CO)*

The compounds below were run against free PSA (Homo sapiens, UniProt P07288) (assay: Recognition of oligopeptides by free PSA (time to 50% cleavage, HPLC)). Details: Table 2, oligopeptides; 4 hours.
Description: The oligopeptides prepared as described in Example 1 were individually dissolved in PSA digestion buffer (12 mM tris(hydroxymethyl)-aminomethane pH8.0, 25 mM NaCl, 0.5 mM CaCl2) and the solution added to PSA at a molar ration of 100 to 1. The reaction is quenched after various reaction times by the addition of trifluoroacetic acid (TFA) to a final 1% (volume/volume). The quenched reaction was analyzed by HPLC on a reversed-phase C18 column using an aqueous 0.1% TFA/acetonitrile gradient. […] Oligopeptides containing free amine moieties (ie. comprising hArg, Orn, Lys and or 3PAL) were tested as TFA salts. All other oligopeptides were tested as neutral compounds.

free PSA, sequence (P07288 25-261): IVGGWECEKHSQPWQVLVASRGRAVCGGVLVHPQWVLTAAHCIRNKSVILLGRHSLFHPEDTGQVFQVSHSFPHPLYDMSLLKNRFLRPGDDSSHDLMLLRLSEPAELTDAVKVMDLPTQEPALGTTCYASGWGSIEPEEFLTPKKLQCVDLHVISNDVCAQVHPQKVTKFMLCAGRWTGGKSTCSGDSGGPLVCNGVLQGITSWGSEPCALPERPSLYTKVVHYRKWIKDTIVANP

| Compound | Substrate cleavage by York PSA at 4 HOUR |
| --- | --- |
| CC(C)C[C@H](NC(=O)[C@H](CO)NC(=O)[C@H](CCC(N)=O)NC(=O)[C@@H](NC(=O)[C@H](CCCCNC(=N)N)NC(=O)[C@@H](N)CO)C1CCCCC1)C(=O)O [ShRChgQ-SL -acid] (H-S[hArg][Chg]QSL-OH) | 8% |

Same assay, conditions: Table 2, oligopeptides; PSA digestion buffer 12 mM Tris pH8.0, 25 mM NaCl, 0.5 mM CaCl2; substrate:PSA 100 to 1

| Compound | Time to 50% Substrate Cleavage by York PSA |
| --- | --- |
| CC(C)C[C@H](NC(=O)[C@H](CO)NC(=O)[C@H](CCC(N)=O)NC(=O)[C@@H](NC(=O)[C@H](CO)NC(=O)[C@H](CO)NC(=O)[C@H](CO)NC(=O)[C@@H](O)CO)C1CCCCC1)C(=O)O [(I)2,3-dihydroxypropionyl-SSSChgQ-SL-acid] ({Glyceroyl(2S)}-SSS[Chg]QSL-OH) | 110 min |
| PEG(4)-β-PAL-SSChgQ-SL-acid | 60 min |

Same assay, conditions: free psa

| Compound | Time to 50% Substrate Cleavage by York PSA (Min), values marked * |
| --- | --- |
| CC(=O)N[C@@H](CCCCNC(=N)N)C(=O)N[C@@H](CO)C(=O)N[C@@H](CO)C(=O)N[C@H](C(=O)N[C@@H](CCC(N)=O)C(=O)N[C@@H](CO)C(=O)N[C@@H](CC(C)C)C(=O)O)C1CCCCC1 [AChRSSChgQ-SL-acid] (Ac-[hArg]SS[Chg]QSL-OH) | 45 min |
| CC(C)C[C@H](NC(=O)[C@H](CO)NC(=O)[C@H](CCC(N)=O)NC(=O)[C@@H](NC(=O)[C@H](CCCCNC(=N)N)NC(=O)[C@H](CO)NC(=O)CO)C1CCCCC1)C(=O)O [2-hydroxyacetyl-ShRChgQ-SL-acid] (Glycolyl-S[hArg][Chg]QSL-OH) | 30 min |
| CC(C)C[C@H](NC(=O)[C@H](CO)NC(=O)[C@H](CCC(N)=O)NC(=O)[C@@H](NC(=O)[C@H](CO)NC(=O)[C@H](CO)NC(=O)[C@H](CCCCNC(=N)N)NC(=O)[C@@H](O)CO)C1CCCCC1)C(=O)O [2(S)2,3-dihydroxypropionly-hRSSChgQ-SL-acid] ({Glyceroyl(2S)}-[hArg]SS[Chg]QSL-OH) | 25 min |
| COCCOCCOCC(=O)N[C@@H](CO)C(=O)N[C@@H](CCCCNC(=N)N)C(=O)N[C@@H](Cc1ccc(O)cc1)C(=O)N[C@@H](CCC(N)=O)C(=O)N[C@@H](CO)C(=O)N[C@@H](CC(C)C)C(=O)O [PEG(2)-ShRYQ-SL-acid] ({Decanoyl(3,6,9-trioxa)}-S[hArg]YQSL-OH) | 35 min |
| CC(C)C[C@H](NC(=O)[C@H](CO)NC(=O)[C@H](CCC(N)=O)NC(=O)[C@@H](NC(=O)[C@H](CCCCNC(=N)N)NC(=O)[C@H](CO)NC(=O)[C@@H](O)CO)C1CCCCC1)C(=O)O [2(S)-2,3-dihydroxy propionylShRChgQSL-acid] ({Glyceroyl(2S)}-S[hArg][Chg]QSL-OH) | 35 min |

Same assay, conditions: free psa, pH 8

| Compound | Time to 50% Substrate Cleavage by York PSA |
| --- | --- |
| CC(=O)N[C@@H](CCCCNC(=N)N)C(=O)N[C@@H](CO)C(=O)N[C@@H](CO)C(=O)N[C@H](C(=O)N[C@@H](CCC(N)=O)C(=O)N[C@@H](CO)C(=O)N[C@@H](CC(C)C)C(=O)O)C1CCCCC1 [AChRSSChgQ-SL-acid] (Ac-[hArg]SS[Chg]QSL-OH) | 120 min |
| CC(C)C[C@H](NC(=O)[C@H](CO)NC(=O)[C@H](CCC(N)=O)NC(=O)[C@@H](NC(=O)[C@H](CO)NC(=O)[C@H](CO)NC(=O)[C@H](CO)NC(=O)CO)C1CCCCC1)C(=O)O [(OH-Ac)SSSChgQ-SL-acid] (Glycolyl-SSS[Chg]QSL-OH) | 120 min |
| CC(C)C[C@H](NC(=O)[C@H](CO)NC(=O)[C@H](CCC(N)=O)NC(=O)[C@@H](NC(=O)[C@H](CCCCNC(=N)N)NC(=O)[C@H](CO)NC(=O)CO)C1CCCCC1)C(=O)O [2-hydroxyacetyl-ShRChgQ-SL-acid] (Glycolyl-S[hArg][Chg]QSL-OH) | 120 min |
| CC(C)C[C@H](NC(=O)[C@H](CO)NC(=O)[C@H](CCC(N)=O)NC(=O)[C@@H](NC(=O)[C@H](CO)NC(=O)[C@H](CO)NC(=O)[C@H](Cc1cccnc1)NC(=O)[C@H](O)CO)C1CCCCC1)C(=O)O [(d)2,3-dihydroxypropionyl-3PAL-SSChgQSL-acid] ({Glyceroyl(2R)}-[3Pal]SS[Chg]QSL-OH) | 80 min |
| COCCOCCOCCOCCOCCOCCOCCOCCOCCOCCOCCOCCOCCOCCOCC(=O)N[C@@H](CO)C(=O)N[C@@H](CCCCNC(=N)N)C(=O)N[C@@H](Cc1ccc(O)cc1)C(=O)N[C@@H](CCC(N)=O)C(=O)N[C@@H](CO)C(=O)N[C@@H](CC(C)C)C(=O)O [PEG(14)ShRYQ-SL-acid] (X6-S[hArg]YQSL-OH) | 40 min |
| COCCOCCOCC(=O)N[C@@H](Cc1cccnc1)C(=O)N[C@@H](CO)C(=O)N[C@@H](CO)C(=O)N[C@H](C(=O)N[C@@H](CCC(N)=O)C(=O)N[C@@H](CO)C(=O)N[C@@H](CC(C)C)C(=O)O)C1CCCCC1 [PEG(2)-3PAL-SSChgQ-SL-acid] ({Decanoyl(3,6,9-trioxa)}-[3Pal]SS[Chg]QSL-OH) | 80 min |
| COCCOCCOCC(=O)N[C@@H](CO)C(=O)N[C@@H](CCCCNC(=N)N)C(=O)N[C@H](C(=O)N[C@@H](CCC(N)=O)C(=O)N[C@@H](CO)C(=O)N[C@@H](CC(C)C)C(=O)O)C1CCCCC1 [PEG(2)-S-hRChgQ-SL-acid] ({Decanoyl(3,6,9-trioxa)}-S[hArg][Chg]QSL-OH) | 30 min |
| CC(C)C[C@H](NC(=O)[C@H](CO)NC(=O)[C@H](CCC(N)=O)NC(=O)[C@@H](NC(=O)[C@H](CO)NC(=O)[C@H](C)NC(=O)[C@H](CCCCNC(=N)N)NC(=O)CO)C1CCCCC1)C(=O)O [2-hydroxyacetyl-hRASChgQ-SL-acid] (Glycolyl-[hArg]AS[Chg]QSL-OH) | 70 min |
| CCCC[C@H](NC(=O)[C@H](CO)NC(=O)[C@H](CCC(N)=O)NC(=O)[C@H](Cc1ccc(O)cc1)NC(=O)[C@H](CO)NC(=O)[C@H](CO)NC(=O)[C@H](CCCCNC(=N)N)NC(=O)CO)C(=O)O [2-hydroxyacetyl-hRSSYQ-SNle-acid] (Glycolyl-[hArg]SSYQS[Nle]-OH) | 45 min |
| CC(C)C[C@H](NC(=O)[C@H](CO)NC(=O)[C@H](CCC(N)=O)NC(=O)[C@@H](NC(=O)[C@H](CO)NC(=O)[C@H](CO)NC(=O)[C@H](CCCCNC(=N)N)NC(=O)C(O)CO)C1CCCCC1)C(=O)O (stereo partly drawn) [2,3-dihydroxypropionyl-hRSSChgQ-SL-acid] (X3-[hArg]SS[Chg]QSL-OH) | 50 min |
| CC(C)C[C@H](NC(=O)[C@H](CO)NC(=O)[C@H](CCC(N)=O)NC(=O)[C@@H](NC(=O)[C@H](CO)NC(=O)[C@H](CO)NC(=O)[C@H](CO)NC(=O)[C@@H](O)CO)C1CCCCC1)C(=O)O [(I)2,3-dihydroxypropionyl-SSSChgQ-SL-acid] ({Glyceroyl(2S)}-SSS[Chg]QSL-OH) | 80 min |
| COCCOCCOCCOCCOCCOCCOCCOCCOCCOCCOCCOCCOCCOCCOCCOCC(=O)N[C@@H](CO)C(=O)N[C@@H](CCCCNC(=N)N)C(=O)N[C@@H](Cc1ccc(O)cc1)C(=O)N[C@@H](CCC(N)=O)C(=O)N[C@@H](CO)C(=O)N[C@@H](CC(C)C)C(=O)O [PEG(15)-ShRYQ-SL-acid] (X5-S[hArg]YQSL-OH) | 40 min |
| COCCOCC(=O)N[C@@H](CO)C(=O)N[C@@H](CCCCNC(=N)N)C(=O)N[C@@H](Cc1ccc(O)cc1)C(=O)N[C@@H](CCC(N)=O)C(=O)N[C@@H](CO)C(=O)N[C@@H](CC(C)C)C(=O)O [PEG(1)-ShRYQ-SL-acid] (MeOCH2CH2OCH2CO-S[hArg]YQSL-OH) | 90 min |
| CC(C)C[C@H](NC(=O)[C@H](CO)NC(=O)[C@H](CCC(N)=O)NC(=O)[C@@H](NC(=O)[C@H](CO)NC(=O)[C@H](CO)NC(=O)CO)C1CCCCC1)C(=O)O [2-hydroxyacetyl-SSChgQ-SL-acid] (Glycolyl-SS[Chg]QSL-OH) | 180 min |
| CC(C)C[C@H](NC(=O)[C@H](CO)NC(=O)[C@H](CCC(N)=O)NC(=O)[C@@H](NC(=O)[C@H](CO)NC(=O)[C@H](CO)NC(=O)[C@@H](O)CO)C1CCCCC1)C(=O)O [(I)2,3-dihydroxypropionyl-SSChgQ-SL-acid] ({Glyceroyl(2S)}-SS[Chg]QSL-OH) | 180 min |
| CC(C)C[C@H](NC(=O)[C@H](CO)NC(=O)[C@H](CCC(N)=O)NC(=O)[C@@H](NC(=O)[C@H](CO)NC(=O)[C@H](CO)NC(=O)[C@H](CCO)NC(=O)C(O)CO)C1CCCCC1)C(=O)O (stereo partly drawn) [2,3-dihydroxypropionyl-hSSSChgQ-SL-acid] (X3-[hSer]SS[Chg]QSL-OH) | 160 min |
| CC(C)C[C@H](NC(=O)[C@H](CO)NC(=O)[C@H](CCC(N)=O)NC(=O)[C@@H](NC(=O)[C@H](CCCCNC(=N)N)NC(=O)[C@H](CO)NC(=O)C(O)CO)C1CCCCC1)C(=O)O (stereo partly drawn) [2,3-dihydroxypropionylShRChgQ-SL-acid] (X3-S[hArg][Chg]QSL-OH) | 75 min |
| CC(C)C[C@H](NC(=O)[C@H](CO)NC(=O)[C@H](CCC(N)=O)NC(=O)[C@@H](NC(=O)[C@H](CCCCNC(=N)N)NC(=O)[C@H](CO)NC(=O)[C@H](O)[C@@H](O)CO)C1CCCCC1)C(=O)O [(2R,3S)2,3,4-trihydroxybutanoyl-ShRChgQ-SL-acid] (X4-S[hArg][Chg]QSL-OH) | 90 min |
| COCCOCCOCCOCCOCCOCCOCCOCCOCCOCCOCCOCCOCCOCCOCCOCCOCCOCCOCCOCC(=O)N[C@@H](CO)C(=O)N[C@@H](CCCCNC(=N)N)C(=O)N[C@@H](Cc1ccc(O)cc1)C(=O)N[C@@H](CCC(N)=O)C(=O)N[C@@H](CO)C(=O)N[C@@H](CC(C)C)C(=O)O [PEG(19)ShRYQ-SL-acid] | 60 min |
| CC(C)C[C@H](NC(=O)[C@H](CO)NC(=O)[C@H](CCC(N)=O)NC(=O)[C@@H](NC(=O)[C@H](CO)NC(=O)[C@H](CO)NC(=O)[C@H](CO)NC(=O)C(O)CO)C1CCCCC1)C(=O)O (stereo partly drawn) [2,3-dihydroxypropionyl-SSSChgQ-SL-acid] (X3-SSS[Chg]QSL-OH) | 120 min |
| CC(C)C[C@H](NC(=O)[C@H](CO)NC(=O)[C@H](CCC(N)=O)NC(=O)[C@@H](NC(=O)[C@H](CO)NC(=O)[C@H](CO)NC(=O)[C@H](Cc1cccnc1)NC(=O)[C@@H](O)CO)C1CCCCC1)C(=O)O [(I)2,3-dihydroxypropionyl-3PAL-SSChgQ-SL-acid] ({Glyceroyl(2S)}-[3Pal]SS[Chg]QSL-OH) | 70 min |
| COCCOCCOCCOCCOCCOCCOCCOCCOCCOCCOCCOCCOCCOCCOCCOCCOCCOCCOCC(=O)N[C@@H](CO)C(=O)N[C@@H](CCCCNC(=N)N)C(=O)N[C@@H](Cc1ccc(O)cc1)C(=O)N[C@@H](CCC(N)=O)C(=O)N[C@@H](CO)C(=O)N[C@@H](CC(C)C)C(=O)O [PEG(18)ShRYQ-SL-acid] | 40 min |
